Test results reported in patent US6756370B1, “Piperidine alcohols” (Merck Patent GmbH, priority 1999, dated 2004).
pIC50: −log10 of the molar value. Counter-ions that a name gives are not always drawn. Like-named read-outs stand apart in the source and are kept apart here.

Assays:
5-HT2A receptors = target: T1, 5-HT2A receptors (Rattus norvegicus, UniProt P14842); assay: 5-HT2A receptor binding test ([3H]ketanserin displacement)
T1 construct: Frontal rat cortex is homogenized in ice-cold buffer; from tissue; host or cells: rat frontal cortex homogenate (membrane pellet)
T1 sequence (P14842 whole entry): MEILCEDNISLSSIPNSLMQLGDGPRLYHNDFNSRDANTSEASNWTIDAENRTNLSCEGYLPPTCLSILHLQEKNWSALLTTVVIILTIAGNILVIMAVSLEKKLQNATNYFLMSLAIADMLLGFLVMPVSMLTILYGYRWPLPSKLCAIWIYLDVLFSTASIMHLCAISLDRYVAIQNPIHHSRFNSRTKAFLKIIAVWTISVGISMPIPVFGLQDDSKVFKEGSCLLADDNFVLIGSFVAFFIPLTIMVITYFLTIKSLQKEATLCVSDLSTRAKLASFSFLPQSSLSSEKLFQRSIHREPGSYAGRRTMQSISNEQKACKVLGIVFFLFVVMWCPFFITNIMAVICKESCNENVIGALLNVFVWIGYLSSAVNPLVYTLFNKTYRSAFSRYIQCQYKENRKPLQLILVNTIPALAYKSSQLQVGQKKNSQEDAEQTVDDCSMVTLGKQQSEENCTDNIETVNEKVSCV
Experimental: For the in-vitro detection of the affinity for 5-HT2A receptors, it is possible to use, for example, the following test (Example A1). The 5-HT2A receptors are exposed to both [^3H]ketanserin (a substance known for its affinity for the receptor) and the test compound. The decrease in the binding of [^3H]ketanserin to the receptor is a sign of the affinity of the test substance for the 5-HT2A receptor. Detection is carried out analogously to the description of J. E. Leysen et al., Molecular Pharmacology, 1982, 21: 301-314 or as also described, for example, in EP 0320983.
Preparation of a suspension of 5-HT2A receptors: Frontal rat cortex is homogenized in ice-cold buffer. The homogenate is centrifuged for 10 minutes at 4° C. and 50,000×[sic]. The pellet is resuspended in 2.5 ml of ice-cold tris buffer, made up with 10 ml of additional buffer and centrifuged as described [lacuna]. The pellet is then resuspended in buffer and diluted to give a homogenate which contains 60 mg of material/ml. 0.1 ml of the suspension, 100 μl of a 5 nM solution of [^3H]ketanserin, 100 μl of a solution of the test compound (concentration in the range from 10^−5 to 10^−10 mol per litre) are added to the incubation tubes and made up to 1 ml with buffer. The tubes are incubated for 15 minutes at 37° C. After termination of the incubation by immersing the tubes in an ice bath, the cooled suspension is filtered through a glass filter in vacuo. The filters are washed 3× with 5 ml of cold buffer and then transferred to scintillation tubes. The filters are analysed by means of liquid scintillation spectrometry in 8 ml of Triton X scintillator fluid.
The IC50 values are indicated for the binding tests.

[1] = tested on: DOI-induced head-twitching in mice; assay: DOI-induced head-twitching in mice (DOI antagonism); assay type: in vivo; settings: male mice, test compound orally, 30 minutes later 3 mg/kg of DOI intraperitoneally, observed for 15 minutes
Excerpt: Serotonin-2(5-HT2)agonists such as 1-(2,5-dimethoxy-4-iodophenyl)-2-aminopropane (DOI) induce sterotypic behaviour patterns such as, for example, head-twitching or ear-scratching in various animals such as, for example, mice or rats (N. A. Darmani et al., Pharmacol. Biochem. Behav. 1989, 36: 901-906; N. A. Darmani et al., Pharmacol. Biochem. Behav. 1990, 37: 95-99; N. A. Darmani et al., Pharmacol. Biochem. Behav. 1994, 48: 383-396; D. L. Willins and H. Y. Meltzer, J. Pharmacol. Exp. Ther., 1997, 282: 699-706).
DOI-induced head-twitching in mice is used in order to test compounds having 5-HT2A antagonistic properties. The test compound is orally administered to male mice. 30 minutes later, 3 mg/kg of DOI is [sic] are administered intraperitoneally. The animals are observed for 15 minutes and the number of head twitches is noted. Quantification of the in vivo antagonistic effect of the test compounds ensues by comparison with the number of head twitches from those investigations in which the animals were only DOI-treated.

[2] = frontal rat cortex homogenate, 15 minutes at 37° C.

pIC50 (5-HT2A receptors; [2]) | melting point [°C] | Molecule | Inhibition [%], suppression of behaviour elicited (head-twitching in mice), DOI antagonism [1] [%] | pIC50 (5-HT2A receptors; read-out: IC50 values (concentrations in mol/l at which 50% of the radioactive ligands are displaced from the binding sites), frontal rat cortex homogenate, 15 minutes at 37° C.)
8.66 |  | CC(O)(c1ccc(F)cc1)C1CCN(CCc2ccsc2)CC1 (racemic) |  | 
9.08 | 177 to 178 | CC(O)(c1ccccc1)C1CCN(CCc2ccc(Cl)s2)CC1.I (racemic) [1-{1-[2-(5-chlorothiophen-2-yl)ethyl]piperidin-4-yl}-1-phenylethanol, hydroiodide] |  | 
9.12 | 159 to 160 | CC(O)(c1ccc(Cl)s1)C1CCN(CCc2ccc(F)cc2)CC1 (racemic) [1-{1-[2-(4-fluorophenyl)ethyl]piperidin-4-yl}-1-(5-chlorothiophen-2-yl)ethanol] | 26 | 
7.24 | 185 to 186 | CC(O)(c1ccc(F)cc1)C1CCN(CCc2ccc(F)cc2)CC1.Cl (single isomer, unassigned; (-)) [(−)-1-{1-[2-(4-fluorophenyl)ethyl]piperidin-4-yl}-1-(4-fluorophenyl)ethanol, hydrochloride] |  | 
7.18 |  | Cc1nc(CCN2CCC(C(C)(O)c3ccc(F)cc3)CC2)cs1 (racemic) |  | 
9.14 |  | CC(O)(c1ccc(F)cc1F)C1CCN(CCc2ccc(F)cc2)CC1 (single isomer, unassigned) [listing 1 of 2 here] |  | 
8.07 |  | CC(O)(c1ccc(C(F)(F)F)cc1)C1CCN(CCc2ccc(Cl)s2)CC1 (racemic) |  | 
7.40 |  | CC(O)(c1ccc(F)cc1)C1CCN(CCc2ccc(F)cc2F)CC1 (single isomer, unassigned) [listing 1 of 2 here] |  | 
8.41 |  | CC(O)(c1ccc(F)cc1)C1CCN(CCc2ccc(Br)s2)CC1 (racemic) |  | 
8.48 |  | CC(O)(c1ccc(F)cc1)C1CCN(CCc2ccsc2)CC1 (single isomer, unassigned) [listing 1 of 2 here] |  | 
8.54 |  | CC(O)(c1ccc(F)cc1)C1CCN(CCc2ccc(F)cc2F)CC1 (single isomer, unassigned) [listing 2 of 2 here] |  | 
9.05 |  | Cc1ccc(CCN2CCC(C(C)(O)c3ccc(F)cc3)CC2)s1 (racemic) |  | 
9.08 |  | CC(O)(c1ccc(F)cc1)C1CCN(CCc2ccc(F)cc2F)CC1 (racemic) |  | 
8.66 |  | CC(O)(c1ccc(F)cc1)C1CCN(CCc2cc(Cl)sc2Cl)CC1 (racemic) |  | 
 |  | COc1cccc(C(O)C2CCN(CCc3ccc(F)cc3)CC2)c1OC (stereo not drawn) [Comparison from EP 0531410, (+)-α-(2,3-dimethoxyphenyl)-1-[2-(4-fluorophenyl)-ethyl]-4-piperidinemethanol, reference compound] | 0 | 
7.49 |  | CC(O)(c1ccc(F)cc1)C1CCN(CCc2ccc(C(F)(F)F)cc2)CC1 (racemic) |  | 
7.68 |  | COc1ccc(CCN2CCC(C(C)(O)c3ccc(F)cc3)CC2)s1 (racemic) |  | 
9.17 | 205 to 207 | CC(O)(c1ccccc1)C1CCN(CCc2ccc(F)cc2)CC1.I (racemic) [R1=4-fluorophenyl, R2=phenyl, HI, rac, 1-{1-[2-(4-fluorophenyl)ethyl]piperidin-4-yl}-1-phenylethanol, hydroiodide] |  | 
6.60 |  | CC(O)(c1ccc(F)cc1)C1CCN(CCc2ccsc2)CC1 (single isomer, unassigned) [listing 2 of 2 here] |  | 
8.89 | 122 to 123 | CC(O)(c1ccc(F)cc1)C1CCN(CCc2ccc(F)cc2)CC1 (racemic) [1-{1-[2-(4-fluorophenyl)ethyl]piperidin-4-yl}-1-(4-fluorophenyl)ethanol] |  | 
8.38 |  | Cc1cc(CCN2CCC(C(C)(O)c3ccc(F)cc3)CC2)sc1Cl (racemic) |  | 
8.85 |  | Cc1ccccc1CCN1CCC(C(C)(O)c2ccc(C(F)(F)F)cc2)CC1 (racemic) |  | 
5.66 |  | CC(O)(c1ccc(F)cc1F)C1CCN(CCc2ccc(F)cc2)CC1 (single isomer, unassigned) [listing 2 of 2 here] |  | 
8.26 |  | CC(O)(c1ccc(F)cc1F)C1CCN(CCc2ccc(Cl)s2)CC1 (racemic) |  | 
9.46 |  | CC(O)(c1ccc(F)cc1)C1CCN(CCc2ccc(F)cc2)CC1 (single isomer, unassigned; (+)) [(+)-1-{1-[2-(4-fluorophenyl)ethyl]piperidin-4-yl}-1-(4-fluorophenyl)ethanol, hydrochloride] |  | 
6.66 |  | CC(O)(c1ccc(F)cc1)C1CCN(CCc2ccncc2)CC1 (racemic) [R1=4-pyridyl, R2=4-fluorophenyl, rac] |  | 
 |  | 1-{1-[2-(2,3-dimethoxy-phenyl)ethyl]piperidin-4-yl}-1-(4-fluorophenyl)ethanol, hydroiodide |  | 7.96
7.57 |  | CC(O)(c1ccc(F)cc1)C1CCN(CCc2ccc(C#N)cc2)CC1 (racemic) |  | 
 | 222 to 223 | CC(O)(c1ccc(F)cc1)C1CCN(CCc2cccs2)CC1.Cl (racemic) [1-{1-[2-(thiophen-2-yl)ethyl]piperidin-4-yl}-1-(4-fluorophenyl)ethanol, hydrochloride] |  | 
8.70 |  | CC(O)(c1ccc(F)cc1)C1CCN(CCc2ccc(Cl)cc2Cl)CC1 (racemic) |  | 

Molecule | pIC50 (5-HT2A receptors; [2]) | melting point [°C] | Inhibition [%], suppression of behaviour elicited (head-twitching in mice), DOI antagonism [1] [%] | pIC50 (5-HT2A receptors; read-out: IC50 values (concentrations in mol/l at which 50% of the radioactive ligands are displaced from the binding sites), frontal rat cortex homogenate, 15 minutes at 37° C.)
CC(O)(c1cccc2c1OCCO2)C1CCN(CCc2ccc(F)cc2)CC1.Cl (racemic) [1-{1-[2-(4-fluorophenyl)ethyl]piperidin-4-yl}-1-(benzo[1,4]dioxan-5-yl)ethanol, hydrochloride] | 8.43 | 209 to 212 | 9 | 
CC(O)(c1ccc(Cl)cc1)C1CCN(CCc2ccc(Cl)s2)CC1.Cl (racemic) [1-{1-[2-(5-chlorothiophen-2-yl)ethyl]piperidin-4-yl}-1-(4-chlorophenyl)ethanol, hydrochloride] | 8.59 | 192 to 193 | 28 | 
CC(O)(c1ccc(F)cc1)C1CCN(CCc2ccc(Cl)s2)CC1 (racemic) [1-{1-[2-(5-chlorothiophen-2-yl)ethyl]piperidin-4-yl}-1-(4-fluorophenyl)ethanol] | 9.16 |  |  | 
CC(O)(c1ccc(F)cc1)C1CCN(CCc2ccc(Cl)s2)CC1.Cl (single isomer, unassigned; (+)) [(+)-1-{1-[2-(5-chlorothiophen-2-yl)ethyl]piperidin-4-yl}-1-(4-fluorophenyl)ethanol, hydrochloride] | 8.96 | 210 to 211 | 21 | 
CC(O)(c1ccc(Cl)cc1)C1CCN(CCc2ccc(F)cc2)CC1.Cl (racemic) [1-{1-[2-(4-fluorophenyl)ethyl]piperidin-4-yl}-1-(4-chlorophenyl)ethanol, hydrochloride] | 8.89 | 201 to 203 | 96 | 
